Test results reported in ChEMBL document CHEMBL4513161, “CO-ADD screening of MMV (CH) - Pandemic Response Box” (2021).
In brackets after ≈: the same amount, converted by molar mass.

Key:
HEK293 = experiment: cells; format: functional, Homo sapiens, ATCC CRL1573; conditions: Homo sapiens, ATCC CRL1573, HEK293; ASSAY_TEST Inhibition of Cell Viability; detection method Resazurin; Fluorescence (ex560/em590); MEDIA DMEM with 10% FBS; plate type 384well; TC; CORNING #3712; time 18 hr; read-out: CC50
Pseudomonas aeruginosa [1] = experiment: Antibacterial activity against Pseudomonas aeruginosa PAO397 [PAO1 d(mexAB-oprM) d(mexCD-oprJ) d(mexEF-oprN) d(mexJKL) d(mexXY) d(opmH)] (CO-ADD:GN_211); MIC in CAMBH media using NBS plates, by OD(600); format: functional; conditions: ASSAY_TEST Inhibition of Bacterial Growth, detection method Absorption (OD600), MEDIA CAMHB, plate type 384well, CORNING #3640, time 18 hr
Staphylococcus aureus = experiment: microbe, parasite or virus in culture; conditions: ATCC 43300, 18 h, ASSAY_TEST Inhibition of Bacterial Growth, detection method Absorption (OD600), MEDIA CAMHB, plate type 384well, NBS, CORNING #3640
Description: Antibacterial activity against Staphylococcus aureus MRSA ATCC 43300 (CO-ADD:GP_020); MIC in CAMBH media, using NBS plates, by OD(600)

Escherichia coli = experiment: microbe, parasite or virus in culture; conditions: ATCC 25922, 18 h, ASSAY_TEST Inhibition of Bacterial Growth, detection method Absorption (OD600), MEDIA CAMHB, plate type 384well, NBS, CORNING #3640
Description: Antibacterial activity against Escherichia coli ATCC 25922 (CO-ADD:GN_001); MIC in CAMBH media using NBS plates, by OD(600)

Klebsiella pneumoniae = experiment: microbe, parasite or virus in culture; conditions: ATCC 700603, 18 h, ASSAY_TEST Inhibition of Bacterial Growth, detection method Absorption (OD600), MEDIA CAMHB, plate type 384well, NBS, CORNING #3640
Description: Antibacterial activity against Klebsiella pneumoniae MDR ATCC 70063 (CO-ADD:GN_003); MIC in CAMBH media using NBS plates, by OD(600)

Pseudomonas aeruginosa [2] = experiment: microbe, parasite or virus in culture; conditions: ATCC 27853, 18 h, ASSAY_TEST Inhibition of Bacterial Growth, detection method Absorption (OD600), MEDIA CAMHB, plate type 384well, NBS, CORNING #3640
Description: Antibacterial activity against Pseudomonas aeruginosa ATCC 27853 (CO-ADD:GN_042); MIC in CAMBH media using NBS plates, by OD(600)

Acinetobacter baumannii = experiment: microbe, parasite or virus in culture; conditions: ATCC 19606, 18 h, ASSAY_TEST Inhibition of Bacterial Growth, detection method Absorption (OD600), MEDIA CAMHB, plate type 384well, NBS, CORNING #3640
Description: Antibacterial activity against Acinetobacter baumannii ATCC 19606 (CO-ADD:GN_034); MIC in CAMBH media using NBS plates, by OD600

Candida albicans = experiment: microbe, parasite or virus in culture; conditions: ATCC 90028, ASSAY_TEST Inhibition of Fungal Growth, detection method Absorption (OD530), plate type 384well, NBS, CORNING #3640
Description: Antifungal activity against Candida albicans ATCC 90028 (CO-ADD:FG_001); MIC in YNB media using NBS plates, by OD630

Description for Cryptococcus neoformans: Antifungal activity against Cryptococcus neoformans H99 ATCC 208821 (CO-ADD:FG_002); MIC in YNB media using NBS plates, by Resazurin OD(600-570)

MIC (Pseudomonas aeruginosa [1]) | MIC (Cryptococcus neoformans) | MIC (Staphylococcus aureus) | MIC (Escherichia coli) | MIC (Klebsiella pneumoniae) | MIC (Pseudomonas aeruginosa [2]) | MIC (Acinetobacter baumannii) | MIC (Candida albicans) | Compound | CC50 (HEK293)
> 20 µM | > 20 µM | > 20 µM | > 20 µM | > 20 µM | > 20 µM | > 20 µM | > 20 µM | COc1cc(NC(=O)CN2C(=O)NC(c3ccccc3)(c3ccccc3)C2=O)cc(OC)c1 | > 20 µM
> 20 µM | > 20 µM | > 20 µM | > 20 µM | > 20 µM | > 20 µM | > 20 µM | > 20 µM | C[C@@H](NC(=O)c1ccccc1-c1ccccc1)B(O)O | > 20 µM
> 20 µM | > 20 µM | > 20 µM | > 20 µM | > 20 µM | > 20 µM | > 20 µM | > 20 µM | CCNC(=O)Nc1cc(-c2ccccc2)c(-c2cncc(C(=O)O)c2)cn1 | > 20 µM
2.5 µM (≈ 0.984 µg/mL) | > 20 µM | 0.312 µM (≈ 0.123 µg/mL) | > 20 µM | > 20 µM | > 20 µM | > 20 µM | > 20 µM | CCNC(=O)Nc1cc2c(-c3ccnc(C)c3)ccc(CNC(=O)OC)c2cn1 | > 20 µM
> 20 µM | > 20 µM | > 20 µM | > 20 µM | > 20 µM | > 20 µM | > 20 µM | > 20 µM | CCOC(=O)Nc1cc(NC(C)CC(C)CN(CC)CC)c2nc(-c3ccccc3)c(-c3ccccc3)nc2n1 (stereo unspecified) | > 20 µM

Second part, the compound before the results:

Compound | MIC (Pseudomonas aeruginosa [1]) | MIC (Cryptococcus neoformans) | MIC (Staphylococcus aureus) | MIC (Escherichia coli) | MIC (Klebsiella pneumoniae) | MIC (Pseudomonas aeruginosa [2]) | MIC (Acinetobacter baumannii) | MIC (Candida albicans) | CC50 (HEK293)
O=C(Nc1ccccc1)N(Cc1cc(Br)ccc1O)c1ccc(F)cc1 | > 20 µM | > 20 µM | > 20 µM | > 20 µM | > 20 µM | > 20 µM | > 20 µM | > 20 µM | > 20 µM
c1ccc(-c2nnc3c4ccccc4c(N4CCNCC4)nn23)cc1 | > 20 µM | > 20 µM | > 20 µM | > 20 µM | > 20 µM | > 20 µM | > 20 µM | > 20 µM | 14.2 µM
Cc1cc(Nc2ccc(F)cc2)nc(SCc2nc3ccccc3[nH]2)n1 | > 20 µM | > 20 µM | > 20 µM | > 20 µM | > 20 µM | > 20 µM | > 20 µM | > 20 µM | > 20 µM
Fc1ccc2c(/C=C/c3cccnc3)c[nH]c2c1 | > 20 µM | > 20 µM | > 20 µM | > 20 µM | > 20 µM | > 20 µM | > 20 µM | > 20 µM | > 20 µM
C[C@@H](O)[C@H](N)C(=O)NS(=O)(=O)c1cccc(-c2ccc3[nH]ncc3c2)c1 | > 20 µM | > 20 µM | > 20 µM | > 20 µM | > 20 µM | > 20 µM | > 20 µM | > 20 µM | > 20 µM
O=c1ccc2ncc(=O)n3c2n1CC3CN1CCC(NCc2cc3c(cn2)OCCC3)CC1 (stereo unspecified) | ≤ 0.156 µM | > 20 µM | 0.625 µM (≈ 0.28 µg/mL) | 2.5 µM (≈ 1.12 µg/mL) | > 20 µM | 20 µM (≈ 8.97 µg/mL) | 10 µM (≈ 4.49 µg/mL) | > 20 µM | > 20 µM
O=C(Nc1cccc(C2=NCCN2)c1)c1ccc(-c2ccc(C(=O)Nc3cccc(C4=NCCN4)c3)cc2)cc1 | 5 µM (≈ 2.64 µg/mL) | > 20 µM | 0.625 µM (≈ 0.33 µg/mL) | 2.5 µM (≈ 1.32 µg/mL) | > 20 µM | > 20 µM | > 20 µM | > 20 µM | > 20 µM
CCCCSc1nc(N)c2[nH]c(=O)c(=O)n(Cc3ccccc3)c2n1 | > 20 µM | > 20 µM | > 20 µM | > 20 µM | > 20 µM | > 20 µM | > 20 µM | > 20 µM | > 20 µM
Fc1ccc(-n2cc(Cn3c(-c4cccc(F)c4)nc4ccccc43)nn2)cc1 | > 20 µM | > 20 µM | > 20 µM | > 20 µM | > 20 µM | > 20 µM | > 20 µM | > 20 µM | > 20 µM
